Counter-ions that a name gives are not always drawn.
Assays:
CRF1 receptor = target: T1, CRF1 receptor (Homo sapiens, UniProt P34998); assay: CRF1 Receptor Binding Assay; settings: competition binding with [125I]Tyr0-ovine CRF, human IMR-32 neuroblastoma cell membranes; pKi derived from pIC50
T1 construct: Cell membranes are prepared according the method of Dieterich and DeSouza (1996); endogenous in cells; host or cells: IMR-32 human neuroblastoma cells (membrane preparation)
T1 sequence (P34998 24-415): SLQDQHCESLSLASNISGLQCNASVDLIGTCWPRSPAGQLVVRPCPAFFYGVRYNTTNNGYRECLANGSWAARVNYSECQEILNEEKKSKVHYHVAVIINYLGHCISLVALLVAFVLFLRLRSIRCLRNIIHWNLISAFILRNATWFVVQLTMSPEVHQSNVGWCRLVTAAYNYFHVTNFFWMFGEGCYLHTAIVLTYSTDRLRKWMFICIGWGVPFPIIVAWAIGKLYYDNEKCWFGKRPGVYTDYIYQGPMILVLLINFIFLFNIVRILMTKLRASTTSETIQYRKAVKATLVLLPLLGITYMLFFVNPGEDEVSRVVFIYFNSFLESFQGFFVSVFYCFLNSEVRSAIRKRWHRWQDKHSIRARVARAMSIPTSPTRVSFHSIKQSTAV
Protocol: CRF1 Receptor Binding Assay
Human IMR-32 neuroblastoma cells are grown to 80% confluence in MEM medium containing 10% heat-inactivated FBS, lmM Sodium Pyruvate, and 0.1 mM nonessential amino acids. Cell membranes are prepared according the method of Dieterich and DeSouza (1996). The cells (˜5E+9) are resuspended in 10 volumes of wash buffer (5 mM Tris HCl, 10 mM MgCl2, 2 mM EGTA, pH 7.4 at RT), homogenized with a Polytron, and then centrifuged at 45,000 G for 20 min at 4° C. The membrane pellets are washed twice with wash buffer (45,000 G for 20 min at 4° C.) and then resuspended (50 mM Tris HCl, 10 mM MgCl2, 2 mM EGTA, pH 7.4 at RT). Protein concentration is determined using Pierce reagents and BSA as standard. Aliquots of 1-1.5 mL are stored at −80° C. until binding assay.
The competition binding assay is performed in a final volume of 250 μl, which contains assay buffer (50 mM Tris-HCl, 10 mM MgCl2, 2 mM EGTA, 0.2% BSA, 0.1 mM bacitracin and 100 kIU/mL aprotinin pH 7.2 at R.T.), 0.05 nM [^125I]Tyr^0-ovine CRF (Du Pont New England Nuclear), 50 μg of membrane protein, and test compound at various concentrations. Non-specific binding is determined with 1 uM hCRF. Binding reactions are terminated after 2 hr incubation at 25° C. by filtering through 96-w GF/C filter plate using a Packard Harvester (Filtermate 196). The 96-w filter plate is pre-treated with 0.3% polyethyleneimine and pre-washed with washing buffer (50 mM Tris-HCl, 10 mM MgCl2, 2 mM EGTA, 0.2% BSA, pH 7.2 at 4° C.). Unbound radioactivity is removed by four rapid washes (0.8 ml/well) with wash buffer. The radioactivity is quantified using a Packard TopCount. Data are analyzed using non-linear iterative curve fitting to obtain IC50 and Hill slope values. PKi values are derived from pIC50 values (−log of IC50).

Structure (SMILES) | melting point | Ki (CRF1 receptor)
Cc1ccn(-c2cc(Nc3c(Cl)cc(Cl)cc3Cl)nc(C)n2)n1 (as salt: hydrochloride) [[2-Methyl-6-(3-methyl-pyrazol-1-yl)-pyrimidin-4-yl]-(2,4,6-trichloro-phenyl)-amine] | 245 to 247 °C | –
CCCc1ccn(-c2nc(C)nc(Nc3c(Cl)cc(Cl)cc3Cl)c2C)n1 [[2,5-Dimethyl-6-(3-propyl-pyrazol-1-yl)-pyrimidin-4-yl]-(2,4,6-trichloro-phenyl)-amine] | – | 1.62 µM
Cc1ccn(-c2cc(Nc3c(Cl)cc(Cl)cc3Cl)nc(C)n2)n1 [[2-Methyl-6-(3-methyl-pyrazol-1-yl)-pyrimidin-4-yl]-(2,4,6-trichloro-phenyl)-amine] | – | 1.07 µM
Cc1cn(-c2nc(C)nc(Nc3c(Cl)cc(Cl)cc3Cl)c2Cl)cn1 [[5-Chloro-2-methyl-6-(4-methyl-imidazol-1-yl)-pyrimidin-4-yl]-(2,4,6-trichloro-phenyl)-amine] | – | 1.91 µM

Source: patent publication US7414059B2, “Pyrazolyl and imidazolyl pyrimidines as CRF antagonists” (Roche Palo Alto LLC, priority 2003, dated 2008)
